Consider one compound from article PMC3082472 (2010).

The test system of the experiment is RNA probe (thiol / methylene blue E-AB aptamer) (RNA, aptamer) GGGACUUGGUUUAGGUAAUGAGUCCC
Put plainly: electrochemical aptamer-based sensor, square wave voltammetry. As to conditions: 100 mM NaCl, 5 mM MgCl2; 20 mM Tris, pH 7.5; aptamer immobilised on gold.

The structures appear in SMILES notation.

Compound `NC[C@H]1O[C@H](O[C@H]2[C@H](O)[C@@H](O[C@H]3O[C@H](CO)[C@@H](O)[C@H](N)[C@H]3O)[C@H](N)C[C@@H]2N)[C@H](O)[C@@H](O)[C@@H]1O` had a dissociation constants of 281 µM.
